The values below come from ChEMBL document CHEMBL1156075, “5,5'- and 6,6'-dialkyl-5,6-dihydro-1H-pyridin-2-ones as potent inhibitors of HCV NS5B polymerase” (Bioorg Med Chem Lett, 2009).

Molecules are shown by their SMILES.

In one data set the test system is Hepatitis C virus. The experiment in a line: microbe, parasite or virus in culture. Particulars: genotype 1b, Huh-7, 72 h.
Data set [1] in a line: in vitro. Particulars: human, Huh7/C24 cells.
Description: Cytotoxicity against human Huh7/C24 cells after 72 hrs by bDNA assay
The nature of data set [2]: in vitro. Particulars: human, liver microsomes. In general terms: Liver microsomes are vesicles of endoplasmic reticulum, rich in cytochrome P450 enzymes.
The nature of data set [3]: in vitro. Particulars: human, liver microsomes. The source holds these as a separate data set.
Data set [4] has as its system Cynomolgus monkey. Particulars: in vivo, iv, 1 mg/kg.
A short description of data set [5]: in vitro. Particulars: cynomolgus monkey, liver microsomes.
A short description of data set [6]: in vitro. To be noted: human, liver microsomes. This is another data set of the same source.
The nature of data set [7]: Oral bioavailability in cynomolgus monkey at 1 mg/kg, po. Type of data set: ADME, organism-based, Macaca fascicularis. Particulars: in vivo.
The nature of data set [8]: Clearance in cynomolgus monkey at 1 […]. Further details: dose 1 mg/kg. The format is ADME, organism-based, Macaca fascicularis. To be noted: in vivo.
Data set [9] can be described thus: Clearance in cynomolgus monkey at 1 mg/kg, iv. The format is ADME, organism-based, Macaca fascicularis. Details: dose 1 mg/kg, route intravenous. To be noted: in vivo.
A short description of data set [10]: Apparent permeability from apical to basolateral side in human Caco-2 cells at 10 uM after 3 hrs. The format is ADME, cell-based. Background: Caco-2 cells form a polarised layer with tight junctions and transporters.
For data set [11], the system named is Cynomolgus monkey. To be noted: in vivo, po, 1 mg/kg.

What is called EC50 is the concentration at which the effect is half-maximal. As a reminder, the CC50 is the concentration giving 50% cytotoxicity. A word on the half-life: it is the time needed for the level to fall by half in the phase considered. With `CC(C)(C)CC[C@]1(C)CN(C2CCCC2)C(=O)C(C2=NS(=O)(=O)c3cc(NS(C)(=O)=O)ccc3N2)=C1O`, the EC50 in the data set with Hepatitis C virus came to 310 nM. Moreover, in “in vitro [1]”, the 50% cytotoxic concentration (CC50) at 72 h is greater than 10000 nM. Besides, the half-life at 5 µM in the data set “in vitro [2]” was 1.6 min; in the data set “in vitro [3]”, greater than 60 min.

`CC(C)(C)CC[C@]1(C)CN(C2CCC2)C(=O)C(C2=NS(=O)(=O)c3cc(NS(C)(=O)=O)ccc3N2)=C1O` gave an EC50 in the data set with Hepatitis C virus of 460 nM. Besides, the CC50 at 72 h in “in vitro [1]” was greater than 1000 nM. The half-life at 5 µM in the data set “in vitro [2]” was 3 min; in “in vitro [3]” it was greater than 60 min.

`CCC[C@]1(C)CN(C2CCC2)C(=O)C(C2=NS(=O)(=O)c3cc(NS(C)(=O)=O)ccc3N2)=C1O` had an EC50 with Hepatitis C virus of 8500 nM. Also, the half-life at 5 µM is 2.8 min in “in vitro [2]” and greater than 60 min in the data set “in vitro [3]”.

Take `CCCC[C@]1(C)CN(C2CCC2)C(=O)C(C2=NS(=O)(=O)c3cc(NS(C)(=O)=O)ccc3N2)=C1O`: the 50% effective concentration (EC50) in the data set with Hepatitis C virus is greater than 10000 nM. The half-life at 5 µM was 3 min in “in vitro [2]” and greater than 60 min in “in vitro [3]”.

In the data set on Hepatitis C virus, `C[C@@]1(CCC2CC2)CN(C2CCC2)C(=O)C(C2=NS(=O)(=O)c3cc(NS(C)(=O)=O)ccc3N2)=C1O` came in with an EC50 of 150 nM. The same compound showed a cytotoxic concentration (CC50) at 72 h in the data set “in vitro [1]” greater than 1000 nM. Further, the figures for the half-life at 5 µM in the data set “in vitro [2]” and in the data set “in vitro [3]” were 5.1 min and greater than 60 min, respectively.

As usually defined, the AUC is the area under the concentration-time curve, a measure of exposure. As usually defined, the bioavailability is dose-corrected exposure relative to a reference, in per cent. As usually defined, the CL/F is clearance divided by bioavailability, as obtained after extravascular dosing. The clearance is the volume of plasma or blood freed of the substance per unit of time. What is called Papp A→B is the apparent permeability from the apical to the basolateral side of a cell layer. `CS(=O)(=O)Nc1ccc2c(c1)S(=O)(=O)N=C(C1=C(O)[C@@H]3CCC[C@@H]3N(Cc3ccc(F)cc3)C1=O)N2`: the area under the curve (AUC) in the data set with Cynomolgus monkey [4] amounted to 29100 ng·h/mL; in the data set with Cynomolgus monkey [11], 6040 ng·h/mL. In addition, the half-life at 5 µM in “in vitro [5]” and in “in vitro [6]” was greater than 60 min throughout. In addition, a half-maximal effect in the data set with Hepatitis C virus (EC50) was put at 16 nM. This compound returned a half-maximal cytotoxic concentration (CC50) at 72 h in “in vitro [1]” greater than 100000 nM. In [7], the bioavailability was found to be 21%. For the same compound, the CL/F in data set [8] was found to be 0.63 mL/min/kg. The same compound came in with a clearance in data set [9] of 0.63 mL/min/kg. In addition, in data set [10], the Papp A→B at 3 h, 10 µM stood at 1.6 ×10⁻⁶ cm/s.

`CC[C@@]1(CCC(C)C)CN(C2CCCC2)C(=O)C(C2=NS(=O)(=O)c3cc(NS(C)(=O)=O)ccc3N2)=C1O` came in with an EC50 in the data set on Hepatitis C virus of 300 nM. This compound returned a half-maximal cytotoxic concentration (CC50) at 72 h in “in vitro [1]” greater than 1000 nM. For the same compound, the half-life at 5 µM in “in vitro [2]” is 3 min; in the data set “in vitro [3]” it was greater than 60 min.

Turning to `CC(C)CC[C@]1(C)CN(C2CCC2)C(=O)C(C2=NS(=O)(=O)c3cc(NS(C)(=O)=O)ccc3N2)=C1O`, the results for the exposure (AUC) in the data set on Cynomolgus monkey [4] and with Cynomolgus monkey [11] were 3560 ng·h/mL and 556 ng·h/mL, respectively. For the same compound, the half-life at 5 µM in “in vitro [5]” was 55 min; in “in vitro [6]”, 2.2 min. In the data set on Hepatitis C virus, this compound displayed a concentration for a half-maximal effect (EC50) of 14 nM. The compound also displayed a half-maximal cytotoxic concentration (CC50) at 72 h in “in vitro [1]” greater than 10000 nM. In addition, in data set [7], the bioavailability turned out to be 16%. The CL/F in [8] was determined as 4.7 mL/min/kg. Moreover, in [9], the clearance was 4.7 mL/min/kg. In [10], the apical-to-basolateral permeability (Papp A→B) at 3 h, 10 µM came to 2.9 ×10⁻⁶ cm/s.

In turn, `CC(C)CC[C@]1(C)CN(C2CCCCC2)C(=O)C(C2=NS(=O)(=O)c3cc(NS(C)(=O)=O)ccc3N2)=C1O` returned an EC50 in the data set with Hepatitis C virus of 25 nM. The compound also came in with a half-life at 5 µM in the data set “in vitro [6]” greater than 3.6 min. This compound returned a cytotoxic concentration (CC50) at 72 h in “in vitro [1]” greater than 33000 nM.

In the data set on Hepatitis C virus, `CC[C@H]1CC(O)=C(C2=Nc3ccc(NS(C)(=O)=O)cc3S(=O)(=O)N2)C(=O)N1Cc1ccc(F)cc1` had a 50% effective concentration (EC50) of 83 nM. Besides, in the data set “in vitro [6]”, the half-life at 5 µM is greater than 60 min. This compound also showed a 50% cytotoxic concentration (CC50) at 72 h in “in vitro [1]” greater than 1000 nM.

On to `CCC(CC)[C@@H]1CC(O)=C(C2=NS(=O)(=O)c3cc(NS(C)(=O)=O)ccc3N2)C(=O)N1Cc1ccc(F)cc1`, for which, in the data set on Hepatitis C virus, the midpoint of the response, the EC50, lay at 310 nM. In addition, in the data set “in vitro [6]”, the half-life at 5 µM was found to be 59 min. This compound also showed a CC50 at 72 h in “in vitro [1]” greater than 1000 nM.

In the data set with Hepatitis C virus, `CC(C)(C)CC[C@]1(C)CN(C2CCCCC2)C(=O)C(C2=NS(=O)(=O)c3cc(NS(C)(=O)=O)ccc3N2)=C1O` returned an EC50 of 1400 nM. This compound also had a CC50 at 72 h in the data set “in vitro [1]” greater than 10000 nM. For the same compound, the values for the half-life at 5 µM in “in vitro [2]” and in the data set “in vitro [3]” were 1.4 min and greater than 60 min, respectively.

Consider `C#CC[C@]1(C)CN(C2CCCC2)C(=O)C(C2=NS(=O)(=O)c3cc(NS(C)(=O)=O)ccc3N2)=C1O`, for which the EC50 with Hepatitis C virus was 2900 nM. Moreover, the half-life at 5 µM in the data set “in vitro [6]” came out at 43 min. Moreover, in “in vitro [1]”, the cytotoxic concentration (CC50) at 72 h was greater than 33000 nM.

The compound `CC(C)/C=C/C[C@@H]1CN(C2CCCC2)C(O)C(C2=NS(=O)(=O)c3cc(NS(C)(=O)=O)ccc3N2)=C1O` (some centres undefined) displayed an EC50 with Hepatitis C virus of 240 nM. The compound further displayed a half-life at 5 µM in the data set “in vitro [6]” of 35 min. In addition, in the data set “in vitro [1]”, the CC50 at 72 h was greater than 33000 nM.

For `CS(=O)(=O)Nc1ccc2c(c1)S(=O)(=O)N=C(C1=C(O)C3(CCCC3)CN(Cc3ccc(F)cc3)C1=O)N2`, a half-maximal response in the data set on Hepatitis C virus (EC50) required 2100 nM. This compound also returned a half-life at 5 µM in the data set “in vitro [6]” of 28 min. Further, the half-maximal cytotoxic concentration (CC50) at 72 h in the data set “in vitro [1]” was greater than 33000 nM.

Consider `CS(=O)(=O)Nc1ccc2c(c1)S(=O)(=O)N=C(C1=C(O)C[C@H](c3ccccc3)N(Cc3ccc(F)cc3)C1=O)N2`, for which the midpoint of the response in the data set with Hepatitis C virus, the EC50, lay at 660 nM. In “in vitro [6]”, the half-life at 5 µM was greater than 60 min. The compound further had a CC50 at 72 h in “in vitro [1]” greater than 10000 nM.

In turn, `C[C@@]1(CCC2CC2)CN(C2CCCC2)C(=O)C(C2=NS(=O)(=O)c3cc(NS(C)(=O)=O)ccc3N2)=C1O` had an EC50 with Hepatitis C virus of 170 nM. In “in vitro [1]”, this compound displayed a cytotoxic concentration (CC50) at 72 h greater than 10000 nM. Further, the values for the half-life at 5 µM in the data set “in vitro [2]” and in the data set “in vitro [3]” were 3.7 min and greater than 60 min, respectively.

In the data set on Hepatitis C virus, `CC(C)CC[C@H]1CN(Cc2ccc(F)cc2)C(=O)C(C2=NS(=O)(=O)c3cc(NS(C)(=O)=O)ccc3N2)=C1O` returned an EC50 of 490 nM. In the data set “in vitro [6]”, the half-life at 5 µM stood at 6.5 min. The CC50 at 72 h in the data set “in vitro [1]” is greater than 33000 nM.

In turn, `CS(=O)(=O)Nc1ccc2c(c1)S(=O)(=O)N=C(C1=C(O)[C@@H](Cc3ccc(F)cc3)CN(Cc3ccc(F)cc3)C1=O)N2` had an EC50 in the data set on Hepatitis C virus of 3600 nM. In “in vitro [6]”, the half-life at 5 µM was greater than 60 min. Further, the CC50 at 72 h in the data set “in vitro [1]” was greater than 33000 nM.

Consider `CS(=O)(=O)Nc1ccc2c(c1)S(=O)(=O)N=C(C1=C(O)CC3(CCCC3)N(Cc3ccc(F)cc3)C1=O)N2`, for which a half-maximal response with Hepatitis C virus (EC50) required 840 nM. For the same compound, the half-life at 5 µM in the data set “in vitro [6]” was greater than 60 min. Also, the CC50 at 72 h in the data set “in vitro [1]” was greater than 33000 nM.

On to `CC1(C)CN(Cc2ccc(F)cc2)C(=O)C(C2=NS(=O)(=O)c3cc(NS(C)(=O)=O)ccc3N2)=C1O`, for which the midpoint of the response in the data set with Hepatitis C virus, the EC50, lay at 1300 nM. The compound also displayed a half-life at 5 µM in the data set “in vitro [6]” greater than 60 min. Moreover, the half-maximal cytotoxic concentration (CC50) at 72 h in the data set “in vitro [1]” is greater than 33000 nM.

`CC(C)=CC[C@H]1CN(Cc2ccc(F)cc2)C(=O)C(C2=NS(=O)(=O)c3cc(NS(C)(=O)=O)ccc3N2)=C1O` returned a half-maximal effective concentration (EC50) in the data set on Hepatitis C virus of 670 nM. Besides, the half-life at 5 µM in “in vitro [6]” came out at 6.9 min. Besides, the CC50 at 72 h in “in vitro [1]” is greater than 33000 nM.

In the case of `CS(=O)(=O)Nc1ccc2c(c1)S(=O)(=O)N=C(C1=C(O)C3(CCC3)CN(Cc3ccc(F)cc3)C1=O)N2`, in the data set with Hepatitis C virus, the midpoint of the response, the EC50, lay at 770 nM. In the data set “in vitro [6]”, the half-life at 5 µM was greater than 60 min. The compound further yielded a CC50 at 72 h in the data set “in vitro [1]” greater than 33000 nM.
